Test results from patent US20210260051A1, “COMBINATION OF EZH2 INHIBITOR AND CHECKPOINT THERAPY FOR THE TREATMENT OF CANCER” (Board of Regents, The University of Texas System, priority 2018, published 2021).

Experiments:
MB49 tumor = assay: MB49 tumor-bearing Rag1-/- mice; type: in vivo, mouse; conditions: compared with the untreated group
Source text: FIGS. 3A-3F: Blocking expression of EZH2 mediated by anti-CTLA-4 using CPI-1205 increases the effectiveness of anti-CTLA-4 therapy. Tumor growth (FIG. 3A), survival (FIG. 3B) and percentages of intra-tumoral CD4^+CD25^+FoxP3^+ regulatory T cells, CD4^+ICOS^+T-bet^+ and CD8^+IFNγ^+ cells (FIG. 3C) in MB49 tumor-bearing mice treated with vehicle, anti CTLA-4, CPI-1205, or the combination. Tumor growth (FIG. 3D) and percentages of CD4^+IFNγ^+ cells and CD8^+TNFα^+ cells in the lymph nodes (LN) (FIG. 3E) of MB49 tumor-bearing Ezh2^fl/+ and FoxP3^CreEzh2^fl/fl mice treated with anti-CTLA-4 on days 7 and 9. (FIG. 3F) Tumor growth and survival of MB49 tumor-bearing Rag-1^−/− mice treated with vehicle or CPI-1205. Data are representative of three independent experiments (n=10 in each group; one-way ANOVA was used to determine significance between the groups. **p<0.01).
To determine whether the anti-tumoral effect of combination therapy is exclusively due to effector immune response or is an additive effect of CPI-1205 on tumor cells, Rag 1^−/− C57BL/6 mice were used, which have no mature lymphocyte population. MB49 tumor-bearing Ragl^−/− mice were treated with CPI-1205.
Mice. C57BL/6 (5-7 weeks) mice were purchased from the National Cancer Institute (Frederick, Md.). […]

[1] = test system: CXCL9 and CXCL10 in MB49 tumor; assay: relative CXCL9 and CXCL10 expression in tumor of MB49 tumor-bearing mice; type: in vivo, mouse; conditions: FIG. 10C-D

COc1cc(C)[nH]c(=O)c1CNC(=O)c1c(C)n([C@H](C)C2CCN(CC(F)(F)F)CC2)c2ccccc12 [CPI-1205, N-[(4-methoxy-6-methyl-2-oxo-1H-pyridin-3-yl)methyl]-2-methyl-1-[(1R)-1-[1-(2,2,2-trifluoroethyl)piperidin-4-yl]ethyl]indole-3-carboxamide]
survival (MB49 tumor): No significant difference
tumor growth (MB49 tumor): No significant difference
CXCL9 expression in tumor [1]: increased
CXL10 expression in tumor [1]: increased
